Earlier results, collected in patent US20040202705A1 (priority 1999, published 2004).

Conditions: human, in vivo

SMILES: Nc1c2c(nc3ccccc13)CCCC2 [Tacrine]
- Patients with reversible hepatotoxicity: approximately 30%
